Three compounds from paper PMC13327496, “The X‐Ray Crystal Structure of BorF, the Flavin Reductase Subunit of a Two‐Component Flavin‐Dependent Tryptophan Halogenase” (Proteins, 2026) can be followed below.

For one assay, the target named is T1, BorF (uncultured bacterium, UniProt M9QXS1).
T1 construct: full-length residues 1-196 plus an N-terminal Pro after PreScission cleavage; His6-MBP tag removed; synthetic gene, E. coli Rosetta2(DE3) pLysS; homodimer
T1 sequence (M9QXS1 1-196): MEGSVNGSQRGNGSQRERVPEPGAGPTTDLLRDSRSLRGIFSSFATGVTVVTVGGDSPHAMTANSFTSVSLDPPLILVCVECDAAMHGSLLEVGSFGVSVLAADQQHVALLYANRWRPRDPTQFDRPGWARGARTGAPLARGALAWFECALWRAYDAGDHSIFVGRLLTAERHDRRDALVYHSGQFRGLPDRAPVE
Description: NADH depletion at […] nm. It counts as biochemical. Conditions: 25 mM HEPES pH 7.5, room temperature.

The target of assay [1] is BorF (soil bacterial metagenome from the Anza-Borrego desert). Description: SEC; BorF alone after tag cleavage, Superdex 200, 20 mM Tris pH 7.5, 150 mM NaCl; single peak at 78.2 mL. (In general: SEC sorts molecules by how far they enter the pores of the column.)

For `Cc1cc2nc3c(=O)[nH]c(=O)nc-3n(C[C@H](O)[C@H](O)[C@H](O)COP(=O)(O)O)c2cc1C` [FMN], the “NADH depletion at 340 nm” value at BorF (apo-BorF, 25 μM FMN, 100 μM NADH) is “BorF utilizes FAD as a substrate but is also able to reduce FMN and riboflavin”.
For the compound `NC(=O)C1=CN([C@@H]2O[C@H](COP(=O)(O)OP(=O)(O)OC[C@H]3O[C@@H](n4cnc5c(N)ncnc54)[C@H](O)[C@@H]3O)[C@@H](O)[C@H]2O)C=CC1` [NADH], on BorF (apo-BorF 0.2 μM, 25 μM FAD), the “NADH depletion at 340 nm” value is listed as “BorF oxidizes NADH to NAD^+, as determined by NADH depletion monitored by absorbance”.
A word on the stoichiometry N: it is a count of units in the complex or per binding partner. On to BorF (enzyme), for which the stoichiometry N in assay [1] is 2.
